Results: patent publication US9696323B2, “Biomarkers for chagas disease related cardiomyopathy” (THE BOARD OF REGENTS OF THE UNIVERSITY OF TEXAS SYSTEM, priority 2013, dated 2017)

Experiment: 2D-GE plasma proteome profile (differential protein expression) of T. cruzi-infected rats treated with PBN and/or BZ
Type: in vivo, rat
Conditions: plasma
Excerpt: Certain embodiments include biomarkers identified in a previous study. Parasite persistence and oxidative damage in the heart are known to be of pathological significance during Chagas disease (Zacks et al., (2005) An Acad Bras Cienc, 77, 695-715; Gupta et al., (2009) Interdiscip Perspect Infect Dis, 2009, 190354). […] In the previous study the inventors identified 92 proteins that were differentially expressed or oxidized in chagasic plasma. Functional analysis allocated a majority of these proteins to inflammation/immunity and lipid metabolism categories, and to molecular pathways associated with cardiovascular dysfunction, e.g., myocardial infarction, hypertrophy, and fibrosis, and pulmonary embolism and hypertension. Some proteins in chagasic rats treated with PBN and/or BZ were allocated to curative pathways (immune regulation and cardiac remodeling). The 2D-GE results were validated by Western blotting. […] Increased plasma levels of GSN, MYL2, and VIM were directly correlated with the severity of cardiac disease in human chagasic patients. […] These findings have utility in diagnosing disease severity and designing suitable therapy for management of human chagasic patients.
Ingenuity Pathway Analysis (IPA) is a highly curated and comprehensive software used for the integration of proteins into networks and pathways with biological meaning (Thomas and Bonchev, (2010). Hum Genomics, 4, 353-360). Network analysis of the plasma proteome profile of chagasic rats identified four major sub-networks linked to host response to T. cruzi infection and disease development (Table V). The maximal numbers of the differentially expressed plasma proteins (19 proteins) in chagasic rats were associated with antigen presentation and inflammatory response category (Table V) and indicators of persistent inflammation, known to be of pathological significance in Chagas disease (Dhiman et al., (2009) Clinical and Vaccine Immunology, 16, 660-666; Tanowitz et al., (2009) Prog Cardiovasc Dis, 51, 524-539; Junqueira et al., (2010) Expert Rev Mol Med, 12, e29). Following functional analysis of the inflammation-associated proteins, 12 proteins (APOA1, APOE, C3, CFB, CFH, FGB, GSN, KRT10, PLG, SCG2, SERPINA1, and SERPINC1) were identified as being involved in immune cell trafficking and cell movement of leukocytes, granulocytes, phagocytes, neutrophils, and dendritic and antigen presenting cells. Some of the differentially expressed proteins in inflammation category were associated with activation (APOE, C3, CFH, GC and PLG), chemotaxis (C3, SCG2, SERPINA1, SERPINC1), and infiltration of leukocytes (APOA1, APOE, C3, PLG, KRT10) and neutrophils (C3, CFB, CFH, PLG). Up regulation of APOE, APOA1, APOH, GC and PLG in chagasic plasma was indicative of activation, binding and accumulation of macrophages in the disease state. Of the 19 differentially expressed inflammation-associated proteins, 11 proteins (APOE, C3, CFB, CFH, GSN, KRT10, SCG2, SERPINA1, SERPINC1, GC, and PLG) were carbonylated in chagasic plasma. […] Other proteins (APOE, C3, KRT3, and SCG2) were exposed to oxidation due to T. cruzi-induced, acute oxidative stress, but were normalized in expression and oxidation during the chronic phase.
Seventeen of the differentially expressed proteins in chagasic plasma, i.e., AFM, C4BPA, CACNA1D, DLGAP2, GC, KNG1, MUG1, MYLPF, MY05A, MY05B, PRPH, PZP, RAI14, and SCG2, were allotted to the lipid metabolism/molecular transport/small molecule biochemistry category (Table V) and functionally linked by IPA network analysis to lipid, fatty acid, and carbohydrate metabolism. A majority of the proteins in this category, i.e., ALB, APOA1, APOA4, APOE, APOH, C3, GC, GNAQ, MY05A, PLG, SCD2, SERPINA1, SERPINC1 and VIM, were linked to the synthesis, metabolism, transport, and modification of lipids and fatty acids, and to uptake and release or efflux of lipids, eicosanoids, and cholesterol. […]

CC(C)(C)/[N+]([O-])=C/c1ccccc1 [PBN]
Spot# 106 Average Normalized Density × 100,000 (RAP group (acute infection)): 1.70 | Spot# 106 Average Normalized Density × 100,000 (RCP/RCB/RCPB groups (chronic infection)): 6.94
